# Results reported in patent US20170158776A1, “TREATMENT OF LUNG CANCER USING A COMBINATION OF AN ANTI-PD-1 ANTIBODY AND ANOTHER ANTI-CANCER AGENT” (Bristol-Myers Squibb Company, priority 2014, published 2017).
# “Also recorded” adds a separate entry of the source.
# Key:
# [1] = system: heavily pretreated patients with advanced NSCLC; test: CA209-003 phase 1: nivolumab monotherapy, safety
# [2] = system: patients with NSCLC; test: Nivolumab monotherapy arm (Arm F), efficacy; format: in vivo, human
# Method: (§1) One arm was developed to test the effect of nivolumab monotherapy on NSCLC. Patients were treated with 3 mg/kg nivolumab (nivo) q2w (once every 2 weeks).
# [3] = system: patients with NSCLC; test: Nivolumab monotherapy arm (Arm F), safety; format: in vivo, human; conditions: 3 mg/kg q2w
# Method: as §1
# [4] = system: pts with advanced NSCLC after first-line PT-based chemotherapy; test: Phase 1: switch to nivolumab maintenance as monotherapy or with bevacizumab, efficacy (RECIST 1.1); format: in vivo, human
# Method: (§2) Pts with no progression within 42 days of completing ≧4 cycles first-line PT-based chemotherapy (±BEV) were assigned to either nivolumab (N) 5 mg/kg IV Q3W+BEV 15 mg/kg IV Q3W (non-squamous [non-sq] pts only; n=12) or N 3 mg/kg IV Q2W monotherapy (sq arm [n===8] or non-sq arm [n=13]) until progression/unacceptable toxicity (treatment beyond progression allowed based on protocol-defined criteria). ORR was evaluated using RECIST 1.1.
# [5] = system: pts with advanced NSCLC after first-line PT-based chemotherapy; parameters: species or system human; conditions: in vivo
# Method: as §2
# [6] = target: T1, PD-1 (Homo sapiens, UniProt Q15116); conditions: 15 subjects, 0.3 mg/kg to 10 mg/kg, across all doses, cited from earlier work
# T1 construct: Receptor-occupancy data from 15 subjects who received 0.3 mg/kg to 10 mg/kg dosing with nivolumab; endogenous in cells
# T1 sequence (Q15116 25-288): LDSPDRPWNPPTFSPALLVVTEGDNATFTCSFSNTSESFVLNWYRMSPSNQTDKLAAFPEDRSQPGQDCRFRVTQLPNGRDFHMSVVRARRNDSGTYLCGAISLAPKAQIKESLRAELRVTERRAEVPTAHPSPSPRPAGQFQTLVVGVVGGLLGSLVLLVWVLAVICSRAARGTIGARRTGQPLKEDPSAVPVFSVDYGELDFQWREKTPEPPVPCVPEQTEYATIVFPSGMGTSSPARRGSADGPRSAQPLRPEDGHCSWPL
substance,measurement,setting,value
nivolumab,"select AE Renal, Grade 3-4",[1]; N = 129,0 % (n)
same,"select AE Skin, Any Grade",[1]; N = 129,16 (20) % (n)
same,"select AE Skin, Grade 3-4",[1]; N = 129,0 % (n)
same,decreased appetite,[1]; NSCLC cohort,12%
same,diarrhea,[1]; NSCLC cohort,10%
same,fatigue,[1]; NSCLC cohort,24%
same,Rate of grade 3-4 treatment-related AEs,[1]; NSCLC cohort (n = 129),14%
same,patients with grade 3-5 treatment-related pneumonitis,"[1]; NSCLC cohort, 4 patients",3%
same,patients with treatment-related pulmonary events,"[1]; NSCLC cohort, 12 patients",9%
same,treatment-related deaths,[1]; all associated with pneumonitis,Three
same,Rate of grade 3-4 treatment-related AEs,[1]; overall study patient population (N = 306),17%
same,maximum tolerated dose,[1]; up to 10 mg/kg every two weeks,without reaching the maximum tolerated does (MTD); also recorded: A maximum tolerated dose was not reached
same,Best Overall Response: CR,[2]; Arm F (n = 52),4 (8%)
same,Best Overall Response: PD,[2]; Arm F (n = 52),20 (38%)
same,Best Overall Response: PR,[2]; Arm F (n = 52),8 (15%)
same,Best Overall Response: SD,[2]; Arm F (n = 52),14 (27%)
same,Best Overall Response: Unable to determine,[2]; Arm F (n = 52),6 (12%)
same,Best Overall Response: Unconfirmed PR,[2]; Arm F (n = 52),0
same,Confirmed DCR,[2]; Arm F (n = 52),26 (50%)
same,Confirmed ORR,[2]; Arm F (n = 52),12 (23%)
same,Overall DCR,[2]; Arm F (n = 52),26 (50%)
same,Overall ORR,[2]; Arm F (n = 52),12 (23%)
same,>80% target lesion reduction at 18 wks,[2]; Arm F N = 52,3 (6%)
same,Median OS,[2]; Arm F N = 52,22.6 mos
same,Median PFS,[2]; Arm F N = 52,15.6 wks
same,Number of responders,[2]; Arm F N = 52,12 (23%)
same,OS rate at 12 months,[2]; Arm F N = 52,74%
same,Ongoing responder,[2]; Arm F N = 52,8 (67%)
same,PFS rate at 24 weeks,[2]; Arm F N = 52,41%
same,Best Overall Response: CR,[2]; Non-squamous (n = 39),3 (8%)
same,Best Overall Response: PD,[2]; Non-squamous (n = 39),7 (18%)
same,Best Overall Response: PR,[2]; Non-squamous (n = 39),7 (18%)
same,Best Overall Response: SD,[2]; Non-squamous (n = 39),0
same,Best Overall Response: Unable to determine,[2]; Non-squamous (n = 39),6 (15%)
same,Best Overall Response: Unconfirmed PR,[2]; Non-squamous (n = 39),0
same,Confirmed DCR,[2]; Non-squamous (n = 39),18 (46%)
same,Confirmed ORR,[2]; Non-squamous (n = 39),10 (26%)
same,Overall DCR,[2]; Non-squamous (n = 39),18 (46%)
same,Overall ORR,[2]; Non-squamous (n = 39),10 (26%)
same,Best Overall Response: CR,[2]; Squamous (n = 13),1 (8%)
same,Best Overall Response: PD,[2]; Squamous (n = 13),5 (38%)
same,Best Overall Response: PR,[2]; Squamous (n = 13),1 (8%)
same,Best Overall Response: SD,[2]; Squamous (n = 13),6 (46%)
same,Best Overall Response: Unable to determine,[2]; Squamous (n = 13),0
same,Best Overall Response: Unconfirmed PR,[2]; Squamous (n = 13),0
same,Confirmed DCR,[2]; Squamous (n = 13),8 (62%)
same,Confirmed ORR,[2]; Squamous (n = 13),2 (15%)
same,Overall DCR,[2]; Squamous (n = 13),8 (62%)
same,Overall ORR,[2]; Squamous (n = 13),2 (15%)
same,"Arthralgia, All Gr",[3]; n = 52,5 (9.6) n (%)
same,"Arthralgia, GR ¾",[3]; n = 52,0 n (%)
same,"Constipation, All Gr",[3]; n = 52,3 (5.8) n (%)
same,"Constipation, GR ¾",[3]; n = 52,0 n (%)
same,"Diarrhea, All Gr",[3]; n = 52,6 (11.5) n (%)
same,"Diarrhea, GR ¾",[3]; n = 52,1 (1.9) n (%)
same,"Fatigue, All Gr",[3]; n = 52,15 (28.8) n (%)
same,"Fatigue, GR ¾",[3]; n = 52,0 n (%)
same,"Hypothyriodism, All Gr",[3]; n = 52,3 (5.8) n (%)
same,"Hypothyriodism, GR ¾",[3]; n = 52,0 n (%)
same,"Nausea, All Gr",[3]; n = 52,7 (13.5) n (%)
same,"Nausea, GR ¾",[3]; n = 52,0 n (%)
same,"Pneumonitis, All Gr",[3]; n = 52,3 (5.8) n (%)
same,"Pneumonitis, GR ¾",[3]; n = 52,1 (1.9) n (%)
same,"Pruritus, All Gr",[3]; n = 52,6 (11.5) n (%)
same,"Pruritus, GR ¾",[3]; n = 52,0 n (%)
same,"Rash, All Gr",[3]; n = 52,10 (19.2) n (%)
same,"Rash, GR ¾",[3]; n = 52,2 (3.8) n (%)
same,"Total patients with an event, All Gr",[3]; n = 52,37 (71.2) n (%)
same,"Total patients with an event, GR ¾",[3]; n = 52,10 (19.2) n (%)
same,"Vomiting, All Gr",[3]; n = 52,3 (5.8) n (%)
same,"Vomiting, GR ¾",[3]; n = 52,0 n (%)
same,Discontinued subjects: Toxicity,[3]; 52 treated,6 (12%)
same,Stable disease as best overall response,[4]; all pts of the treatment,48%
same,Median PFS,[4]; non-sq pts,21.4 weeks
same,Stable disease as best overall response,[4]; non-sq pts,46%
same,Median PFS,[4]; sq pts,16.0 weeks
same,Stable disease as best overall response,[4]; sq pts,50%
same,Median OS,[4]; switch maintenance,not reached
same,ORR,"[4]; switch maintenance, RECIST 1.1",10%
same,Any-grade treatment-related adverse events,[5],62%
same,grade 3 pleural effusion,[5],1 n
same,grade 3 pneumonitis,[5],2 n
same,pts discontinued due to treatment-related AEs,[5],Four
same,treatment-related grade 4 AEs,[5],No treatment-related grade 4 AEs were reported
same,mean plateau PD-1 occupancy,[6]; range 59% to 81%,72%
same,mean PD-1 occupancy rate,[6]; range 70% to 97%,85%
